In PMC7259601 (PLoS ONE, 2020):

How the values were obtained:
brain MAO-A = brain MAO-A (Mus musculus, UniProt Q64133); assay: in vivo
Method: Male CD1 mice (8 weeks of age, 25-30 g) procured from Charles River were housed in the same conditions as in Ex vivo assay of MAO-A inhibition section.
Ex-vivo MAO-A activity was measured essentially as previously described . […] Brain samples were weighed and then thawed and homogenised in 20 volumes of homogenisation buffer after which MAO-A activity was measured. […] Enzyme activity was corrected by subtracting an assay buffer blank and initially expressed in units of nmoles substrate/min. The protein concentration of the homogenates was measured and used to express final enzyme activity in units of nmoles/min/mg protein. All results are expressed as a mean of duplicate determinations. Brains from animals treated acutely were assayed on a different day to those treated for 5 days (chronically).
MAO-A activity was determined using serotonin creatinine sulphate [2-^14C] as outlined above. Raw enzyme activity values (in nmoles substrate/min) were corrected by subtracting an assay buffer blank and were normalized to the total protein concentration (in nmoles/min/mg protein). All results are means of duplicate determinations. Different drug treatments were compared by Oneway-ANOVA with Dunnett analysis.

platelet (PLT) levels = assay: Rat pharmacodynamics: hematology, 5 day treatment and recovery
Source text: KDM1A is involved in hematopoiesis, and it is well known that KDM1A knockdown or KDM1A inhibitors can halt hematopoiesis when administered at sufficiently high doses and during sufficient time^(39). […] Data from N = 6 rats are represented as mean ± SEM.
Male Wistar rats (N = 3 or 6 per dose level) of 10-12 weeks of age were maintained in air and temperature controlled cages with regular supply of water and food. A maximum of […] were raised. Before first administration, the animals were marked on the tail for identification. […] Animal of each treatment group were sampled for blood on days 1, 3, 5, 8, 10, 12, 15, 17 and 19. Blood samples of days 1, 3 and 5 were obtained just one hr after the compound administration. Blood samples were obtained from leg saphenous vein using recipients treated with EDTA to avoid coagulation. The last day of the study, rats were euthanized under CO2 saturated atmosphere and blood was extracted by cardiac puncture and collected in recipients containing EDTA.
Blood samples obtained from leg saphenous vein or cardiac puncture were analyzed on a Diatron hematology analyzer at SEA (Plataforma Recerca Aplicada Animal de Laboratori, Parc Científic de Barcelona).
Hematology parameters were calculated as mean ± SEM and represented as a timecourse.

SAMP8 mice [1] = assay: Novel Object Recognition Test (NORT); type: in vivo, mouse
Method: (§1) Both male and female mice from the senescence accelerated strain SAMP8 and its control SAMR1 of different ages (see Table S3 for details) were used in these studies. Mice were breed in the animal facilities of the Pharmacy Faculty (University of Barcelona), maintained in a at 22 ± 2 °C controlled temperature in a 12 hr light / dark cycle (lights on at 8:00 am; 300 lux/0 lux) with ad libitum access to food (2018 TEKLAD, Harlan) and water. Male mice were housed individually (males) or in groups of 4-5 animals (females) in plastic colony boxes with a sawdust bedding material. […] SAMR1 mice treated with vehicle were included as a control. All drugs were administered via drinking water and diluted in vehicle. Drug concentration was calculated weekly in function of body weight and corrected in function of drinking water consumption. Cognitive function was evaluated by NORT, social behavior was evaluated by RI and anxiety and motor function were evaluated by EPM and OF. When necessary, animals were deeply anesthetized (80 mg/kg sodium pentobarbital) and brain samples (hippocampus, (prefrontal) cortex) were micro-dissected and processed according to the downstream analysis.
The protocol was performed as previously described. Briefly, animals were placed in a 90°- two-arm maze. Mice were habituated to the apparatus for 10 min during 3 consecutive days. On day 4, two identical novel objects (A+A or B+B) were placed at the end of each arm and animals performed a 10-min acquisition trial. A 10-min retention trial was carried out 2 hr after the acquisition trial with object A and B. Time exploring the novel (NO) and the familiar object (FO) was measured and a discrimination Index (DI) was defined as (NO-FO)/(NO+FO). In some experiments, a more restrictive threshold was applied and animals exploring less than 5 sec (NO+FO) were excluded from the analysis (Table S3).
Novel Object Recognition Test (NORT): Time exploring the novel (NO) and the familiar object (FO) was measured and a discrimination Index (DI) was defined as (NO-FO)/(NO+FO). In some experiments, a more restrictive threshold was applied and animals exploring less that 5 sec (NO+FO) were excluded from the analysis (Table S3). Open Field (OF): Locomotor activity was analyzed by video-tracking over the captured images using SMART® (v 2.5.21 (rat) or v3.0 (mice), PanLab, SLU, Spain).

SAMP8 mice [2] = assay: Resident Intruder (RI) test, SAMP8; type: in vivo, mouse; conditions: 0.32 or 0.96 mg/kg/day for 5 weeks, male
Method: as §1
The protocol was modified from previously described. Briefly, the test subject (resident) was maintained in its home cage without bedding changes for one week. […] In mice the session was video-recorded for 20 min and social interaction (social interaction and rearings) and aggressive behavior (lateral threats, clinch attacks, keep-down behavior) were analyzed. […] In rats the session was video recorded for 15 min and social interaction (active and passive social interaction, number of evitations and time without social interaction) were analyzed. […] In addition, the time spent without social interaction was also measured.
Resident Intruder (RI): Mice were video-recorded for 20 min and social interaction and aggressive behavior were analyzed. Rats were video recorded for 15 min and social interaction (active and passive social interaction, number of evitations and time without social interaction) were analyzed.

H3K9 ac = assay: Epigenetic selectivity profile; type: biochemical; design: dose or concentration left out as unconfirmed
Method: […]. MAO-A inhibition at 10 μM was 37%, in line with internal data.

rats = assay: Functional Observation Battery; type: in vivo; conditions: single dose of up to 100 mg/kg

Chain of brain MAO-A (Q64133 whole entry): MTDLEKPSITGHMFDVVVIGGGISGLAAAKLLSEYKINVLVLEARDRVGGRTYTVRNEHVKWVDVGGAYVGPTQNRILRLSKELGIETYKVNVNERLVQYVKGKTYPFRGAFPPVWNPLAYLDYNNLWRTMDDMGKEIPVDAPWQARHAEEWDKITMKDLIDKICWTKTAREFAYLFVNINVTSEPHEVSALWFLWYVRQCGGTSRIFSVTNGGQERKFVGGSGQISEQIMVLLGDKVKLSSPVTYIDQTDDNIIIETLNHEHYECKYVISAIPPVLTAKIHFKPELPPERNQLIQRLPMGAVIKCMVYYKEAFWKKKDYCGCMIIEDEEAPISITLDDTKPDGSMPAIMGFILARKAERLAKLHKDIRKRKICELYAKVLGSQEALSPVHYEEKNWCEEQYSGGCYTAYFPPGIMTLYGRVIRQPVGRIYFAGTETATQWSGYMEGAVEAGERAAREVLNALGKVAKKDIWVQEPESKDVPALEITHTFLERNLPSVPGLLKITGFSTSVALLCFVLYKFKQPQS

SMILES: Nc1nnc(CN[C@@H]2C[C@H]2c2ccc(OCc3ccccc3)cc2)o1 [ORY-2001, vafidemstat]
- ex vivo brain MAO-A inhibition, acute setting (brain MAO-A; mice, acute 1 to 100 mg/kg p.o. gavage): only the 100 mg/kg dose led to a significant inhibition
- ED50 (brain MAO-A; mouse, po, read-out: ED50 ex vivo brain MAO-A inhibition): ~10 mg/kg
- dose limiting toxicity in 5 day MTD studies (platelet (PLT) levels; hematopoietic impact): reversible and dose dependent impact on platelets
- maximum PLT rebound (platelet (PLT) levels; rats, 5 day treatment, 14 day recuperation): ~12 days
- EC50 of PLT reduction (platelet (PLT) levels; rats, p.o. gavage, 5 day treatment): ~ 0.5 mg/kg
- NORT discrimination capacity (SAMP8 mice [1]; 0.32 and 0.96 mg/kg/day (Exp3, Exp4)): completely restored the discrimination capacity
- NORT discrimination capacity, short treatment (SAMP8 mice [1]; 5 day treatment at 0.96 mg/kg/day (Exp5)): equally effective as a one month treatment
- NORT performance of aged SAMP8 mice (SAMP8 mice [1]; eight month old, treated 4 months (Exp7)): fully rescued the performance
- rescue of NORT discrimination deficit (SAMP8 mice [1]; lowest dose (0.11 mg/kg/day)): ~ 50%
- latency to attack (SAMP8 mice [2]): tendency to increase the latency to attack
- number of attacks and clinch attacks (SAMP8 mice [2]): lowered to SAMR1 levels
- time in social interactions and number of rearings (SAMP8 mice [2]): No significant strain- or treatment-differences
- % inhibition (H3K9 ac): -5%
- neurological alterations in the Functional Observation Battery (rats): did not lead to neurological alterations
